The text below walks through data of US11279728B2, “Broad spectrum viral inhibitor” (Albert Einstein College of Medicine, priority 2017, dated 2022).

A word on the Km: it is the concentration of substrate that gives half-maximal velocity. Broadly, the kcat is the maximal rate divided by the concentration of active sites.

One series concerns the target Dengue virus (DV) RdRp (Dengue virus type 2, UniProt P29990). Briefly: DV RdRp primed-template (primer extension) assay. In kind it is biochemical. Conditions: for incorporation by DV RdRp on addition to the extended primer: direct incorporation, primed-template assay; for inhibition of DV RdRp-catalyzed production of full-length RNA: in competition with natural ribonucleotides, increasing concentrations (1, 10, 100 and 300 μM); for chain termination of DV RdRp-catalyzed RNA synthesis: once incorporated, only a 16-nt product (n+1). An excerpt: FIG. 6(A)-6(B): DV RdRp-catalyzed RNA synthesis is inhibited by ddhCTP by a chain termination mechanism. A. Schematic of primer extension assay for evaluating DV RdRp activity. Elongation complexes are first assembled with a trinucleotide primer, 5′-pGGC (SEQ ID NO:1), and 20-nt RNA template (SEQ ID NO:2) in the presence of ATP and GTP to elongate the trinucleotide primer (extended primer; SEQ ID NO:3)) and position the enzyme on the template (SEQ ID NO:2) such that guanosine is in the first templating position (underlined). In the presence of CTP and UTP, DV RdRp catalyzes RNA synthesis to the end of the template (SEQ ID NO:5). […] B. Increasing concentrations of ddhCTP (1, 10, 100 and 300 μM) inhibits DV RdRp-catalyzed RNA synthesis. Reaction products resolved by denaturing PAGE from DV RdRp-catalyzed nucleoside incorporation in the presence of increasing concentrations of either ddhCTP or 3′-dCTP. In the absence of ddhCTP and 3′-dCTP, DV RdRp efficiently catalyzes RNA synthesis to the end of the template creating a 20-nt RNA product (n+5, lanes 2 and 8).
Molecular target for ddhCTP: Viperin is induced by both DNA and RNA viruses (8,44-51). However, the presence of a 2′-OH on ddhCTP should almost certainly preclude efficient utilization by DNA polymerases, viral or cellular. (52) In contrast, 3′-deoxyribonucleotides are well known inhibitors of viral RNA-dependent RNA polymerases (RdRps)(53). Because Dengue virus (DV) and other members of the Flavivirus family are known to be sensitive to viperin, we used the DV RdRp as our model to examine the effect of ddhCTP on RdRp activity. First, it was asked if ddhCTP is a substrate for DV RdRp. To do so, a previously described primed-template assay was used. (54) A trinucleotide is used to prime RNA synthesis in the presence of two ^32P-labeled rNTPs, producing a 15-nt product that is referred to here as the extended primer. […] Addition of UTP to the CMP-incorporated RNA led to further extension to the end of template. […] A more stringent test of chain terminator effectiveness is whether it can directly compete with natural ribonucleotides. […] The reduced efficacy of ddhCTP must be caused by the double bond between the 3′ and 4′ positions, and the corresponding impact on the detailed ribose conformation, as this is the only difference between ddhCTP and 3′-dCTP. The phylogeny of viral RdRp genes classifies these enzymes into three supergroups (55), with Flaviviral RdRps belonging to supergroup II. To determine if the observations with DV RdRp extend to other supergroups, we evaluated a member of supergroup I. Specifically, the RdRp from human rhinovirus type C (HRV-C) was used, a member of the Picornavirus family. […] However, in the presence of other rNTPs, HRV-C RdRp was not inhibited by ddhCTP, even though it was inhibited by 3′-dCTP.
Addition of UTP to the CMP-incorporated RNA, as expected, led to further extension to the end of template.

For a further series, the target named is Zika virus (ZIKV) RdRp (Zika virus, UniProt Q32ZE1). Briefly: ZIKV RdRp inhibition by ddhCTP. In kind it is biochemical.
Zika virus (ZIKV) RdRp, sequence (Q32ZE1 2517-3419): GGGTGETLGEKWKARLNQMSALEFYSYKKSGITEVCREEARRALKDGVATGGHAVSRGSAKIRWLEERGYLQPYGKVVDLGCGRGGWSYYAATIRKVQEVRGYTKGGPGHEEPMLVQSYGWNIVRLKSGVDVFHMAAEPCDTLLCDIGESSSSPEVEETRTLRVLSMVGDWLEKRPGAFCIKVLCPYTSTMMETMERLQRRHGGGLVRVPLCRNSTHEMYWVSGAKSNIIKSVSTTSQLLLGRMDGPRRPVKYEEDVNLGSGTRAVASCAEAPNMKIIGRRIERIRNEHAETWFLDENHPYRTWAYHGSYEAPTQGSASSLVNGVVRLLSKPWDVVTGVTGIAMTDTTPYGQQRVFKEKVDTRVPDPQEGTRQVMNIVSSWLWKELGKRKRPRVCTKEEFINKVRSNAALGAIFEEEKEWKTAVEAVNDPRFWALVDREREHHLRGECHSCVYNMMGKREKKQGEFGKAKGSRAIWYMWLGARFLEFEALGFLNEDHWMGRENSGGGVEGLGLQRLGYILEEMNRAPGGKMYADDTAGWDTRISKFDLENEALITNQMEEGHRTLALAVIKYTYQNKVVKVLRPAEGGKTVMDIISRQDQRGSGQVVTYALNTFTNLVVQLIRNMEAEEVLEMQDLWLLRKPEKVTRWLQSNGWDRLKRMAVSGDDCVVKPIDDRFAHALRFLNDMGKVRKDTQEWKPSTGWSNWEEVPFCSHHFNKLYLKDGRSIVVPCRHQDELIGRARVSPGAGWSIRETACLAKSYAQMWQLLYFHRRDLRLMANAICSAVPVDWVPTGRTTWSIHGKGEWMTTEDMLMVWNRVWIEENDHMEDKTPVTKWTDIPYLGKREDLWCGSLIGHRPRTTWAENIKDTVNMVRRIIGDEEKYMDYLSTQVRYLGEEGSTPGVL
Series [1] has as its system RdRp from human rhinovirus type C (HRV-C). Nature of the series: HRV-C RdRp incorporation and inhibition. Type of series: biochemical. Conditions: for utilization by HRV-C RdRp: direct-incorporation experiments; for inhibition of HRV-C RdRp: in the presence of other rNTPs.
The target in another series is poliovirus (PV) RdRp (Poliovirus type 1, UniProt P03300). In kind it is biochemical.
poliovirus (PV) RdRp, sequence (P03300 1749-2209 limits assumed): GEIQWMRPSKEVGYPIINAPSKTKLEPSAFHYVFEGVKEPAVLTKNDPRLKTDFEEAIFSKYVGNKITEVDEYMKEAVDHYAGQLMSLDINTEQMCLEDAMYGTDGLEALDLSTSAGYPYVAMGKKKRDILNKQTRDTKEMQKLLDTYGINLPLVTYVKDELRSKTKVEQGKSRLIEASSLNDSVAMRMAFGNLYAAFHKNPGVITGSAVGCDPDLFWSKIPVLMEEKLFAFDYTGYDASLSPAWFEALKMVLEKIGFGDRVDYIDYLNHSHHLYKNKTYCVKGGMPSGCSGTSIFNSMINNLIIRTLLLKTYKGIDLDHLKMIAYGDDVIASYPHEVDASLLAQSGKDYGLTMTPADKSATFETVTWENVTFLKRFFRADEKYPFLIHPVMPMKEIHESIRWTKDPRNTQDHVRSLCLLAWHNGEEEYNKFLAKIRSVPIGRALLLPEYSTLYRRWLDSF
For another series, the target named is HCV RdRp (Hepatitis C virus genotype 1a, UniProt P27958). Nature of the series: HCV RdRp inhibition by ddhCTP.
HCV RdRp, sequence (P27958 2421-3011): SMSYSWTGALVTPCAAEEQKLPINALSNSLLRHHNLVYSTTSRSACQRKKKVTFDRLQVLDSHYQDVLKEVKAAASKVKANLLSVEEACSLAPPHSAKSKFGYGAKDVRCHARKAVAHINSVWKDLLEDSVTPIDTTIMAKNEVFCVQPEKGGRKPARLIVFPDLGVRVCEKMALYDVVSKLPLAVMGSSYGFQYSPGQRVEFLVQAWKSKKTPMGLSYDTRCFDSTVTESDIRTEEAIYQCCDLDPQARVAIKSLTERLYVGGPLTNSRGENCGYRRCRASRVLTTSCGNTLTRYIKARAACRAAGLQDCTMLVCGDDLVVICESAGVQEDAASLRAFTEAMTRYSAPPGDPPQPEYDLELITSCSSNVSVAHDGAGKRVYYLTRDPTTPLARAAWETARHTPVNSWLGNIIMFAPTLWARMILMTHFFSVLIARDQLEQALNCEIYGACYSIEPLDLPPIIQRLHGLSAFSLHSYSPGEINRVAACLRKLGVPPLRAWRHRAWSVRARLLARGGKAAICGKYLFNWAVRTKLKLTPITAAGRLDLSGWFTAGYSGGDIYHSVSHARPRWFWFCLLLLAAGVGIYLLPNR
Series [2] deals with T1, Rattus norvegicus (residues 51-361) viperin (Rvip) (Rattus norvegicus, UniProt O70600).
T1 sequence (O70600 51-360 limits assumed): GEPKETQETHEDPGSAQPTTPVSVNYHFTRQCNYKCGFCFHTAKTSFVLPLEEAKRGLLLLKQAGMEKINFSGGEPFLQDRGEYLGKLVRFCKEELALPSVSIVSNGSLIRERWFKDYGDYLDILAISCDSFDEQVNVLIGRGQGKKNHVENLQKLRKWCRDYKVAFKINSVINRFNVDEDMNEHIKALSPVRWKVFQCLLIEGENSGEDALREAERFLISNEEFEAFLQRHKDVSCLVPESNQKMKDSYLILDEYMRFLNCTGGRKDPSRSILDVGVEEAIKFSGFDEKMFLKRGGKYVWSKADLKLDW
Nature of the series: In vitro characterization of viperin (Rvip) activity: 5′dA formation / ddhCTP production. Conditions: 50 μM Rvip, 2 mM SAM, 1 mM nucleotide, 5 mM dithionite, 4 min.

For a further series, the system named is Vero cells. Briefly: Vero cell viability (ddhC cytotoxicity). Type of series: cell-based. Conditions: incubation with 1 mM ddhC.
Series [3] deals with ZIKV (MR766, PRVABC59, R103451). Briefly: ZIKV replication and release from Vero cells.
Substrate in series [4]: Nc1ccn([C@@H]2O[C@H](COP(=O)(O)OP(=O)(O)OP(=O)(O)O)[C@@H](O)[C@H]2O)c(=O)n1
Briefly: purified protein, by the assay type. Conditions: other: CTP as substrate of Rvip, 37.0 °C.

Entries after “also recorded” stand apart in the source; their conditions may differ.

Dengue virus (DV) RdRp, sequence (P29990 2492-3391 limits assumed): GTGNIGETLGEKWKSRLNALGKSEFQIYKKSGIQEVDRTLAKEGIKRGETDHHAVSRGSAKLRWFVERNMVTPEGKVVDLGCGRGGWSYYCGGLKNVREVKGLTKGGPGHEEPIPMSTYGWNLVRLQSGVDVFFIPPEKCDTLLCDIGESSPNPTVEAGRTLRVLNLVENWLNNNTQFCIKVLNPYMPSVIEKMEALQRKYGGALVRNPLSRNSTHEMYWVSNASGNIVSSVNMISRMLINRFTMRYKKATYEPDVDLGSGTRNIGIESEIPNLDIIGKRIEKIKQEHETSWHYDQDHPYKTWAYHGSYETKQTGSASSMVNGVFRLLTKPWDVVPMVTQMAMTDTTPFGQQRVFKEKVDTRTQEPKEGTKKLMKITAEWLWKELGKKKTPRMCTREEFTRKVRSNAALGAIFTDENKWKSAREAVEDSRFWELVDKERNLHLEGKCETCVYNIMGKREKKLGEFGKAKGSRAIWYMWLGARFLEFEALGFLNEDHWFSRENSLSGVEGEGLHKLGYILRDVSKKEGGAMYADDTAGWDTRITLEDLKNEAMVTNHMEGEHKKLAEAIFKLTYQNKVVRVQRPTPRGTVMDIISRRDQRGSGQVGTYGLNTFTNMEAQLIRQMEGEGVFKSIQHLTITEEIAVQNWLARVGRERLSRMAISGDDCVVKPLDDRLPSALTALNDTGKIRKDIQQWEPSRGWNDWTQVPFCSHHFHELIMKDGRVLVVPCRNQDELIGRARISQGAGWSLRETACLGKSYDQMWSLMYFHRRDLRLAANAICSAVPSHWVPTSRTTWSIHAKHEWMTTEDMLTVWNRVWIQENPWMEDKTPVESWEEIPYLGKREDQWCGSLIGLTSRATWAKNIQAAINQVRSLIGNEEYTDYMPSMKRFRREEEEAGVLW

Turning to `Nc1ccn([C@@H]2OC(COP(=O)(O)OP(=O)(O)OP(=O)(O)O)=C[C@@H]2O)c(=O)n1` (stereo in doubt) [ddhCTP, 3′-deoxy-3′,4′-didehydro-cytidine triphosphate], on Dengue virus (DV) RdRp, the “incorporation by DV RdRp on addition to the extended primer” value was “led to incorporation”, the “inhibition of DV RdRp-catalyzed production of full-length RNA” value is “inhibits; also recorded: inhibited production of full-length RNA” and the “chain termination of DV RdRp-catalyzed RNA synthesis” value is “terminate RNA synthesis”. For the same molecule, the “inhibition by ddhCTP utilization and chain termination” value against Zika virus (ZIKV) RdRp was “susceptible to inhibition”. Besides, in [1], the “utilization by HRV-C RdRp” value was “utilization” and the “inhibition of HRV-C RdRp” value is recorded as “not inhibited; also recorded: poorly inhibited”. In addition, on poliovirus (PV) RdRp, the “inhibition of PV RdRp” value is listed as “poorly inhibited”. Besides, the “inhibition by ddhCTP utilization and chain termination” value on HCV RdRp is “susceptible to inhibition”.

For the molecule `Nc1ccn([C@@H]2O[C@H](COP(=O)(O)OP(=O)(O)OP(=O)(O)O)C[C@H]2O)c(=O)n1` [3′-dCTP, reference compound], the “efficacy of inhibition of full-length RNA, 3′-dCTP compared with ddhCTP” value at Dengue virus (DV) RdRp (compare lane 10 to lane 4 in FIG. 6B) was “greater efficacy than ddhCTP”. Further, on Dengue virus (DV) RdRp, the “incorporation by DV RdRp on addition to the extended primer” value is given as “led to incorporation”, the “inhibition of DV RdRp-catalyzed production of full-length RNA” value is on record as “inhibited production of full-length RNA” and the “chain termination of DV RdRp-catalyzed RNA synthesis” value was “terminate RNA synthesis”. Further, in series [1], the “utilization by HRV-C RdRp” value is recorded as “utilization” and the “inhibition of HRV-C RdRp” value is on record as “inhibited”. For the same molecule, at poliovirus (PV) RdRp, the “inhibition of PV RdRp” value is recorded as “inhibited”.

In the case of `Nc1ccn([C@@H]2O[C@H](COP(=O)(O)OP(=O)(O)OP(=O)(O)O)[C@@H](O)[C@H]2O)c(=O)n1` [CTP, cytidine triphosphate], in [2], the “activation of 5′dA production relative to protein alone” value came out at 30 fold.

With `Nc1ccn([C@@H]2OC(CO)=C[C@H]2O)c(=O)n1` [ddhC, 3′-deoxy-3′,4′-didehydro-cytidine], the Vero cell viability entry in the series with Vero cells is listed as “did not alter Vero cell viability”. In addition, the “reduction in virus titer” value in series [3] (ZIKV MR766, MOI of 0.1, all time points, Vero cells) is reported as 50-200 fold; in series [3] (ZIKV MR766, MOI of 1.0, Vero cells), 5-50 fold. Also, the “sensitivity to ddhC treatment” value in series [3] (ZIKV PRVABC59 (Puerto Rico), Vero cells) is recorded as “analogous sensitivities”; in series [3] (ZIKV R103451 (Honduras), Vero cells) it was “analogous sensitivities”.

B1: Rattus norvegicus (residues 51-361) viperin (Rvip) (Rattus norvegicus) (protein)
chain: T1 sequence (O70600 51-360 limits assumed)
In the case of B1, the Michaelis constant (Km) in series [4] stood at 183 ± 28 µM. For the same molecule, the kcat in series [4] (b22 prints minutes-1) worked out at 0.185 ± 0.007 min⁻¹.
